Results published in patent publication US20250346597A1, “CONDENSED HETEROCYCLIC COMPOUNDS AS INHIBITOR OF DIACYLGLYCEROL KINASES” (BEONE MEDICINES I GMBH, priority 2023, published 2025).
pIC50: −log10 of the molar value.

Legend:
DGKα = DGKα (Homo sapiens (Human), UniProt P23743); test: Biochemical DGK IC50 assay (ADP-Glo, lipid micelle substrate), DGKα; settings: full length DGKα […], ATP 140 μM, DAG 80 μM; note: full length DGKα 7.5 nM
Method: (§1) Enzymatic reactions of DGKζ, DGKα and DGKδ were performed using ADP-Glo assay with lipid micelle substrate. […] Full length DGKα (D21-10BG, SignalChem) and full length DGKδ (D23-10G, SignalChem) were purchased. Lipid micelle was prepared by dissolving DAG (Sigma, 317505-10MG) and PS (Sigma, P7769-100MG) with chloroform which was furtherly removed by rotary evaporation. The resulted product was resuspended in buffer containing 25 mM HEPES pH 7.0, 0.5 mM EDTA and 160 mM Octyl P-D glucopyranoside by vigorous mixing and ultrasonic (IID, Scientz).
(§2) The inhibition activities testing for the compound disclosed herein were carried out at room temperature in assay buffer containing 50 mM HEPES, 10 mM MgCl2, 0.01% BSA, 0.1 mM Na3VO4, 0.005% Tween-20 and 0.01 mM CaCl2. Compounds in DMSO were dispensed into wells of a black 384 well plate (Corning 4514) using D300e digital dispenser (Tecan). […] 3 μL 2× enzyme solution was added to wells. […] After 1 hour reaction, 5 μL ADP-Glo reagent (Promga V9101) was added and incubated for 40 minutes. 10 μL Kinase Detection reagent was added and incubated for 30 minutes. Luminescence was measured on a microplate reader (PHERAstar FSX, BMG labtech). The IC50s are calculated based on inhibition of enzyme activity in the presence of increasing concentrations of compounds.

DGKζ = DGKζ (Homo sapiens (Human), UniProt Q13574); test: Biochemical DGK IC50 assay (ADP-Glo, lipid micelle substrate), DGKζ; settings: full length DGKζ 0.5 nM, ATP 140 μM, DAG 80 μM
Method: as §1, §2
Human His-TEV-DGK-zeta-pFastBac1 and human baculovirus samples was generated using the Bac-to-Bac baculovirus expression system (Invitrogen) according to the manufacturer's protocol. The DNA used for expression of DGK-zeta, have SEQ ID Nos: 1. Baculovirus amplification was achieved using infected SF9 cells at 1:2000 virus/cells ratios, and grown for 96 hours at 27° C. post-transfected.
The expression scaled up for each protein was carried out in the […] from CORNING. 4 L of 3×10^6 cells/mL Sf9 cells (Expression System, Invitrogen) grown in SF900™ II SFM insect medium (Expression System) was infected with virus stock at 1:200 virus/cells ratio, and grown for 48 hours at 27° C. post-transfection. The infected cell culture was harvested by centrifugation at 6000 rpm for 15 min 4° C. in a SORVALL LYNX6000 centrifuge. The cell pellets were stored at −80° C.
Full length human DGKζ produced as described above, was purified from Sf9 baculovirus-infected insect cell paste. The cells were lysed using sonication method, and the lysates were clarified by centrifugation.

Sequence of DGKζ (Q13574 other isoform, or with tags, fused parts or gaps): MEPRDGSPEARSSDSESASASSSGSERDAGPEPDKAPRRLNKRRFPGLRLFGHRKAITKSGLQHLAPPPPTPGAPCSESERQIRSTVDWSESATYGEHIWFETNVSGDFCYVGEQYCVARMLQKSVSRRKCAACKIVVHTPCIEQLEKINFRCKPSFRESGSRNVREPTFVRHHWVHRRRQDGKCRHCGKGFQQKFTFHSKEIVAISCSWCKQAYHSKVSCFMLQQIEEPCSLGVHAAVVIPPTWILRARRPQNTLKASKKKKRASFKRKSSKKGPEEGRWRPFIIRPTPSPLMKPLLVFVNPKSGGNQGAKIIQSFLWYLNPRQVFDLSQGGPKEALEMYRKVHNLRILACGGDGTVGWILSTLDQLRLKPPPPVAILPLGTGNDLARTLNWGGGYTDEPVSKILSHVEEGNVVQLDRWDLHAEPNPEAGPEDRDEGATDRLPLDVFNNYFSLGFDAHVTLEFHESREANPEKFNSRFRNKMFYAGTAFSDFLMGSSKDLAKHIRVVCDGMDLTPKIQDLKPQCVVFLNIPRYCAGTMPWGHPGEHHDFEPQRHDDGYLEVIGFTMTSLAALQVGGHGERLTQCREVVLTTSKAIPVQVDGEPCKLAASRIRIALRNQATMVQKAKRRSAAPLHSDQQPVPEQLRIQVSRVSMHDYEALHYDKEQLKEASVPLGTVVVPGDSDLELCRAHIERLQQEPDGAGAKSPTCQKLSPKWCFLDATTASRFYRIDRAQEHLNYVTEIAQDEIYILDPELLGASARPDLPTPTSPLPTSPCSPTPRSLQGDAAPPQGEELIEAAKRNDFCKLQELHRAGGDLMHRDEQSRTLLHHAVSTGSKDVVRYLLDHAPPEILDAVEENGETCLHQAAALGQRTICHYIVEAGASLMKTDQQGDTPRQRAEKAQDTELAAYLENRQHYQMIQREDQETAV
Sequence of DGKα (P23743 whole entry): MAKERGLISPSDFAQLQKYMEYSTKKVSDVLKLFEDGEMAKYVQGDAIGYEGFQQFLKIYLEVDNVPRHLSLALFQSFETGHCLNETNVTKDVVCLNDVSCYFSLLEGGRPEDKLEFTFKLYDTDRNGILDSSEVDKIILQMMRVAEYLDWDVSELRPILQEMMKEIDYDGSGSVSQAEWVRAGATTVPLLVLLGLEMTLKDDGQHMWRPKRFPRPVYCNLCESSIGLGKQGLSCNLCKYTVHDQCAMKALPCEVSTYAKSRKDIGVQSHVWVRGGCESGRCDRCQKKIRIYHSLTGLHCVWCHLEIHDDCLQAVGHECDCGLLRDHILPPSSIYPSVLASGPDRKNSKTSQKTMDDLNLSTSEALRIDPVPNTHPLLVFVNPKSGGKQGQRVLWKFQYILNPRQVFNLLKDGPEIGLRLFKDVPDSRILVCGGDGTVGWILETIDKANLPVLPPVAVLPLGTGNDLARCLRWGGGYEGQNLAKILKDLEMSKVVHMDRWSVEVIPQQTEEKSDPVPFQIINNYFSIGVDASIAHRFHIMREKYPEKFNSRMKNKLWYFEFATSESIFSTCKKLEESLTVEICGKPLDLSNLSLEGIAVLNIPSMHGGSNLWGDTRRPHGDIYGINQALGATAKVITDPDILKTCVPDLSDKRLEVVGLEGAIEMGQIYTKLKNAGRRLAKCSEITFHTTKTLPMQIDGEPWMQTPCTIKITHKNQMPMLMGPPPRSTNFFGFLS

pIC50 (DGKα) | pIC50 (DGKζ) | SMILES
6.33 | 7.51 | CC[C@H]1CN(C(C)c2ccc3scnc3c2F)[C@H](CC)CN1c1cc(=O)n(C)c2cn(CC#N)nc12 (single isomer, unassigned) [Compound A110a]
4.98 | 5.76 | CC[C@H]1CN(C(C)c2ccc3scnc3c2F)[C@H](CC)CN1c1cc(=O)n(C)c2cn(CC#N)nc12 (single isomer, unassigned) [Compound A110b]
5.60 | < 5.00 | CC#CCn1cc2c(n1)c(N1C[C@@H](CC)N(C(C)c3nc4ccccc4nc3C)C[C@@H]1C)cc(=O)n2C (single isomer, unassigned) [Compound A111a]
5.90 | 7.26 | CC#CCn1cc2c(n1)c(N1C[C@@H](CC)N(C(C)c3nc4ccccc4nc3C)C[C@@H]1C)cc(=O)n2C (single isomer, unassigned) [Compound A111b]
7.19 | 7.11 | CC#CCn1cc2c(n1)c(N1C[C@@H](CC)N(C(C)c3ccc4ncsc4c3)C[C@@H]1C)cc(=O)n2C (single isomer, unassigned) [Compound A112a]
6.30 | < 5.00 | CC#CCn1cc2c(n1)c(N1C[C@@H](CC)N(C(C)c3ccc4ncsc4c3)C[C@@H]1C)cc(=O)n2C (single isomer, unassigned) [Compound A112b]
7.49 | 7.08 | CC#CCn1cc2c(n1)c(N1C[C@@H](CC)N(C(C)c3ccc4nc(C)sc4c3)C[C@@H]1CC)cc(=O)n2C (single isomer, unassigned) [Compound A114a]
6.41 | 5.49 | CC#CCn1cc2c(n1)c(N1C[C@@H](CC)N(C(C)c3ccc4nc(C)sc4c3)C[C@@H]1CC)cc(=O)n2C (single isomer, unassigned) [Compound A114b]
6.57 | 6.37 | CC#CCn1cc2c(n1)c(N1C[C@@H](CC)N(C(C)c3ccc4nc(C)sc4c3)C[C@@H]1C)cc(=O)n2C (single isomer, unassigned) [Compound A115a]
5.90 | 5.19 | CC#CCn1cc2c(n1)c(N1C[C@@H](CC)N(C(C)c3ccc4nc(C)sc4c3)C[C@@H]1C)cc(=O)n2C (single isomer, unassigned) [Compound A115b]
5.63 | 6.74 | CC#CCn1cc2c(n1)c(N1C[C@@H](CC)N(C(C)c3ccc4nc(C)sc4c3F)C[C@@H]1C)cc(=O)n2C (single isomer, unassigned) [Compound A116a]
4.68 | < 5.00 | CC#CCn1cc2c(n1)c(N1C[C@@H](CC)N(C(C)c3ccc4nc(C)sc4c3F)C[C@@H]1C)cc(=O)n2C (single isomer, unassigned) [Compound A116b]
5.86 | 5.88 | CC[C@H]1CN(C(C)c2ccc3ncsc3n2)[C@H](CC)CN1c1nc(=O)n(C)c2cn(CC#N)nc12 (single isomer, unassigned) [Compound A126a]
7.03 | 7.29 | CC[C@H]1CN(C(C)c2ccc3ncsc3n2)[C@H](CC)CN1c1nc(=O)n(C)c2cn(CC#N)nc12 (single isomer, unassigned) [Compound A126b]
6.45 | 7.15 | CC[C@H]1CN(C(C)c2ccc(C3CC3)nc2)[C@H](CC)CN1c1nc(=O)n(C)c2cn(CC#N)nc12 (single isomer, unassigned) [Compound A127a]
5.47 | 5.48 | CC[C@H]1CN(C(C)c2ccc(C3CC3)nc2)[C@H](CC)CN1c1nc(=O)n(C)c2cn(CC#N)nc12 (single isomer, unassigned) [Compound A127b]
6.43 | 7.22 | CC[C@H]1CN(C(C)c2cc3sc(C)nc3cc2F)[C@H](CC)CN1c1nc(=O)n(C)c2cn(CC#N)nc12 (single isomer, unassigned) [Compound A128a]
5.35 | 6.16 | CC[C@H]1CN(C(C)c2cc3sc(C)nc3cc2F)[C@H](CC)CN1c1nc(=O)n(C)c2cn(CC#N)nc12 (single isomer, unassigned) [Compound A128b]

pIC50 (DGKα) | pIC50 (DGKζ) | SMILES
5.68 | 6.20 | CC[C@H]1CN(C(C)c2ccc3nc(C)sc3n2)[C@H](CC)CN1c1nc(=O)n(C)c2cn(CC#N)nc12 (single isomer, unassigned) [Compound A129a]
6.72 | 7.35 | CC[C@H]1CN(C(C)c2ccc3nc(C)sc3n2)[C@H](CC)CN1c1nc(=O)n(C)c2cn(CC#N)nc12 (single isomer, unassigned) [Compound A129b]
5.48 | 5.82 | CC[C@H]1CN(C(C)c2ccc3nc(C)sc3n2)[C@H](CC)CN1c1cc(=O)n(C)c2cn(CC#N)nc12 (single isomer, unassigned) [Compound A133a]
7.21 | 7.62 | CC[C@H]1CN(C(C)c2ccc3nc(C)sc3n2)[C@H](CC)CN1c1cc(=O)n(C)c2cn(CC#N)nc12 (single isomer, unassigned) [Compound A133b]
5.47 | 5.41 | [2H]C([2H])([2H])n1c(=O)cc(N2C[C@@H](CC)N(C(C)c3ccc4nc(C)sc4n3)C[C@@H]2CC)c2nn(CC#N)cc21 (single isomer, unassigned) [Compound A134a]
6.97 | 7.66 | [2H]C([2H])([2H])n1c(=O)cc(N2C[C@@H](CC)N(C(C)c3ccc4nc(C)sc4n3)C[C@@H]2CC)c2nn(CC#N)cc21 (single isomer, unassigned) [Compound A134b]
7.07 | 7.02 | CCC(c1ccc(C(F)(F)F)cc1)N1C[C@H](CC)N(c2cc(=O)n(C)c3cn(CC#N)nc23)C[C@H]1CC (single isomer, unassigned) [Compound A135a]
6.32 | 5.43 | CCC(c1ccc(C(F)(F)F)cc1)N1C[C@H](CC)N(c2cc(=O)n(C)c3cn(CC#N)nc23)C[C@H]1CC (single isomer, unassigned) [Compound A135b]
6.51 | 6.84 | CC#CCn1cc2c(n1)c(N1C[C@@H](CC)N(C(C)c3ccc4nc(C)sc4c3F)C[C@@H]1CC)cc(=O)n2C (single isomer, unassigned) [Compound A138a]
5.69 | 5.48 | CC#CCn1cc2c(n1)c(N1C[C@@H](CC)N(C(C)c3ccc4nc(C)sc4c3F)C[C@@H]1CC)cc(=O)n2C (single isomer, unassigned) [Compound A138b]
6.08 | 5.47 | CC[C@H]1CN(C(C)c2ccc3nc(C)sc3n2)[C@H](CC)CN1c1c(C#N)c(=O)n(C)c2cn(CC#N)nc12 (single isomer, unassigned) [Compound A140a]
7.03 | 7.35 | CC[C@H]1CN(C(C)c2ccc3nc(C)sc3n2)[C@H](CC)CN1c1c(C#N)c(=O)n(C)c2cn(CC#N)nc12 (single isomer, unassigned) [Compound A140b]
5.86 | 7.75 | CC#CCn1cc2c(n1)c(N1C[C@@H](CC)N(C(C)c3ccc4sc(C)nc4c3F)C[C@@H]1CC)cc(=O)n2C (single isomer, unassigned) [Compound A141a]
5.21 | 6.19 | CC#CCn1cc2c(n1)c(N1C[C@@H](CC)N(C(C)c3ccc4sc(C)nc4c3F)C[C@@H]1CC)cc(=O)n2C (single isomer, unassigned) [Compound A141b]
5.80 | 5.87 | [2H]C([2H])([2H])C(c1ccc2nc(C)sc2n1)N1C[C@H](CC)N(c2cc(=O)n(C([2H])([2H])[2H])c3cn(CC#N)nc23)C[C@H]1CC (single isomer, unassigned) [Compound A142a]
6.97 | 7.70 | [2H]C([2H])([2H])C(c1ccc2nc(C)sc2n1)N1C[C@H](CC)N(c2cc(=O)n(C([2H])([2H])[2H])c3cn(CC#N)nc23)C[C@H]1CC (single isomer, unassigned) [Compound A142b]
5.50 | 5.67 | CC[C@H]1CN(C(C)c2ccc3nc(COC)sc3n2)[C@H](CC)CN1c1cc(=O)n(C)c2cn(CC#N)nc12 (single isomer, unassigned) [Compound A143a]
6.82 | 7.41 | CC[C@H]1CN(C(C)c2ccc3nc(COC)sc3n2)[C@H](CC)CN1c1cc(=O)n(C)c2cn(CC#N)nc12 (single isomer, unassigned) [Compound A143b]
